Assay results from the supplement of paper PMC10307832.

What was measured:
Test in all cases: relative viability (nuclei count vs DMSO), 5 days (fraction); higher = more cells survive
NCI-H661 = test system: NCI-H661
How it was run: (§1)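 Nuclei were stained with Hoechst during a one-step fixation (final 0.05% Triton X-100, 1% formaldehyde, 1 ug/ml Hoechst) carried out 5 days after dosing, then counted on 4× images. The cells, lung cancer lines in 1536-well plates, had been dosed by pin tool the day after seeding with one drug alone or a fixed anchor-drug dose plus five library-drug doses (not always all listed) in √10 steps. Relative viability is the nuclei count in treated wells divided by that in vehicle wells, and each value is the median of duplicate plates.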

LC-2-ad = test system: LC-2-ad
How it was run: as §1

HCC-78 = test system: HCC-78
How it was run: as §1

NCI-H2347 = test system: NCI-H2347
How it was run: as §1

PC-14 = test system: PC-14
How it was run: as §1

NCI-H520 = test system: NCI-H520
How it was run: as §1

EPLC-272H = test system: EPLC-272H
How it was run: as §1

NCI-H322M = test system: NCI-H322M
How it was run: as §1

NCI-H647 = test system: NCI-H647
How it was run: as §1

201T = test system: 201T
How it was run: as §1

LCLC-97TM1 = test system: LCLC-97TM1
How it was run: as §1

NCI-H23 = test system: NCI-H23
How it was run: as §1

With `CC1(C)CCC(c2ccc(Cl)cc2)=C(CN2CCN(c3ccc(C(=O)NS(=O)(=O)c4ccc(N[C@H](CCN5CCOCC5)CSc5ccccc5)c(S(=O)(=O)C(F)(F)F)c4)cc3)CC2)C1` [Navitoclax] + N=C(N)NC(=N)NCCc1ccccc1 [Phenformin] (partner 250 µM) the relative viability (NCI-H661; first compound 0.005 µM) was 0.253, the relative viability (NCI-H661; first compound 0.01581 µM) was 0.298 and the relative viability (NCI-H661; first compound 0.05 µM) was 0.262. The relative viability (NCI-H661; first compound 0.1581 µM) was 0.257, the relative viability (NCI-H661; first compound 0.5 µM) was 0.258 and the relative viability (LC-2-ad; first compound 0.005 µM) was 0.577. The relative viability (LC-2-ad; first compound 0.01581 µM) was 0.653, the relative viability (LC-2-ad; first compound 0.05 µM) was 0.58 and the relative viability (LC-2-ad; first compound 0.1581 µM) was 0.505. It also gave a relative viability (LC-2-ad; first compound 0.5 µM) of 0.572, a relative viability (HCC-78; first compound 0.005 µM) of 0.727 and a relative viability (HCC-78; first compound 0.01581 µM) of 0.692. For the same molecule, the relative viability (HCC-78; first compound 0.1581 µM) was 0.645, the relative viability (HCC-78; first compound 0.5 µM) was 0.75 and the relative viability (NCI-H2347; first compound 0.005 µM) was 0.452. The relative viability (NCI-H2347; first compound 0.01581 µM) was 0.567, the relative viability (NCI-H2347; first compound 0.1581 µM) was 0.321 and the relative viability (NCI-H2347; first compound 0.5 µM) was 0.482. For the same molecule, the relative viability (PC-14; first compound 0.005 µM) was 0.611, the relative viability (PC-14; first compound 0.01581 µM) was 0.598 and the relative viability (PC-14; first compound 0.05 µM) was 0.57. The relative viability (PC-14; first compound 0.1581 µM) was 0.541, the relative viability (PC-14; first compound 0.5 µM) was 0.616 and the relative viability (NCI-H520; first compound 0.005 µM) was 0.576. It also gave a relative viability (NCI-H520; first compound 0.01581 µM) of 0.758, a relative viability (NCI-H520; first compound 0.05 µM) of 0.571 and a relative viability (NCI-H520; first compound 0.1581 µM) of 0.507. For the same molecule, the relative viability (NCI-H520; first compound 0.5 µM) was 0.616, the relative viability (EPLC-272H; first compound 0.005 µM) was 0.376 and the relative viability (EPLC-272H; first compound 0.05 µM) was 0.324. The relative viability (EPLC-272H; first compound 0.1581 µM) was 0.329, the relative viability (EPLC-272H; first compound 0.5 µM) was 0.253 and the relative viability (NCI-H322M; first compound 0.005 µM) was 0.805. The relative viability (NCI-H322M; first compound 0.01581 µM) was 0.923, the relative viability (NCI-H322M; first compound 0.05 µM) was 0.776 and the relative viability (NCI-H322M; first compound 0.1581 µM) was 0.848. For the same molecule, the relative viability (NCI-H322M; first compound 0.5 µM) was 0.954, the relative viability (NCI-H647; first compound 0.005 µM) was 0.536 and the relative viability (NCI-H647; first compound 0.01581 µM) was 0.488. The relative viability (NCI-H647; first compound 0.05 µM) was 0.651, the relative viability (NCI-H647; first compound 0.1581 µM) was 0.323 and the relative viability (NCI-H647; first compound 0.5 µM) was 0.445. For the same molecule, the relative viability (201T; first compound 0.005 µM) was 0.447, the relative viability (201T; first compound 0.01581 µM) was 0.458 and the relative viability (201T; first compound 0.05 µM) was 0.456. The relative viability (201T; first compound 0.1581 µM) was 0.438, the relative viability (201T; first compound 0.5 µM) was 0.492 and the relative viability (LCLC-97TM1; first compound 0.005 µM) was 0.447. It also gave a relative viability (LCLC-97TM1; first compound 0.01581 µM) of 0.504, a relative viability (LCLC-97TM1; first compound 0.05 µM) of 0.403 and a relative viability (LCLC-97TM1; first compound 0.1581 µM) of 0.477. It also gave a relative viability (LCLC-97TM1; first compound 0.5 µM) of 0.507, a relative viability (NCI-H23; first compound 0.005 µM) of 0.759 and a relative viability (NCI-H23; first compound 0.01581 µM) of 0.818. For the same molecule, the relative viability (NCI-H23; first compound 0.05 µM) was 0.662.
